Assay [1] has as its system C57, LDLr+/− and LDLr0 mice. As to the kind of experiment: Serum triglycerides in mice on Western Diet given daily oral T2. The arrangement: Triglycerides / Triglycerides (Ave): unit not given here. Format: in vivo. The procedure: This corresponds to a dosage for an 80 kg human of about 20-200 mg/day, or a low dose of about 0.2-0.3 mg/kg of body weight to a high dose of about 2-3 mg/kg of body weight. One will appreciate, however, that some subjects (e.g., subjects having very low LDL receptor function) may receive higher doses, depending on need. likewise, some subjects may receive lower doses, which again depends on need. Mice in the study were fed a standard lab chow referred to as the “Western Diet.” The overall level of fat and the saturated nature of the fat are representative diets typical in the industrialized west that are linked to risk of cardiovascular disease in humans. The formula is used primarily with genetically manipulated rodent models that are susceptible to high cholesterol and cardiovascular disease. The diet may also be useful in diet-induced obesity, diabetes, and metabolic syndrome models. High cholesterol, obesity, and diabetes are each associated increased risk for cardiovascular disease. The composition of the Western Diet is shown below. C57 is a wild-type strain, LDLr+/− are a strain carrying one functional copy of the LDLr gene, and the LDLr0 animals are total LDLr knockouts. The LDLr gene encodes for the LDL receptor protein, which is responsible for scavenging LDL with bound cholesterol from the blood and transporting it into cells. Both heterozygous and homozygous LDLr knockout animals develop very high serum cholesterol levels and are considered to be a good model for heterozygous and homozygous familial hypercholesterolemia in humans. […] LDLr knockout animals have zero LDL receptor function.

Assay [2] deals with thyroid receptor homodimer. To be noted: in contrast to T3; cited from earlier work.

“And” between values parts separate entries of the source, which are not always exact repeats. Equal values may be shown once.

Consider `N[C@@H](Cc1cc(I)c(Oc2ccc(O)cc2)c(I)c1)C(=O)O` [T2, (2S)-2-amino-3-[4-(4-hydroxyphenoxy)-3,5-diiodophenyl]propanoic acid], for which the “Triglycerides (Ave)” value in assay [1] (C57 mice, 1 Week High Dose, T2 2.5 mg/kg daily oral, group average) is on record as 55.8; in assay [1] (C57 mice, 1 Week Low Dose, T2 0.25 mg/kg daily oral, group average), 29.5; in assay [1] (LDLr0 mice (first group), 1 Week High Dose, T2 2.5 mg/kg daily oral, group average), 192.1; in assay [1] (LDLr0 mice (first group), 1 Week Low Dose, T2 0.25 mg/kg daily oral, group average), 183.0; in assay [1] (LDLr0 mice (second group), 1 Week Low Dose, T2 0.25 mg/kg daily oral, group average) it was 236.2; in assay [1] (LDLr0 mice (second group), 2 Week High Dose (as headed), daily oral T2, group average) it was 356.5. The “Triglycerides (Ave)” value was determined as 52.1 in assay [1] (LDLr+/− mice, 1 Week High Dose, T2 2.5 mg/kg daily oral, group average) and 31.4 in assay [1] (LDLr+/− mice, 1 Week Low Dose, T2 0.25 mg/kg daily oral, group average). Besides, the Triglycerides was 42.161 and 68.02 and 45.486 and 50.657 and 72.822 in assay [1] (C57 mice, 1 Week High Dose, T2 2.5 mg/kg daily oral, individual animal, 2.5 mg/kg); 24.835 and 29.673 and 13.299 and 36.371 and 43.441 in assay [1] (C57 mice, 1 Week Low Dose, T2 0.25 mg/kg daily oral, individual animal, 0.25 mg/kg); 173.672 and 210.614 in assay [1] (LDLr0 mice (first group), 1 Week High Dose, T2 2.5 mg/kg daily oral, individual animal, 2.5 mg/kg); 230.244 and 106.329 and 212.382 in assay [1] (LDLr0 mice (first group), 1 Week Low Dose, T2 0.25 mg/kg daily oral, individual animal, 0.25 mg/kg); 183.413 and 260.001 and 239.273 and 268.082 and 244.895 and 177.441 and 263.163 and 252.975 in assay [1] (LDLr0 mice (second group), 1 Week Low Dose, T2 0.25 mg/kg daily oral, individual animal, 0.25 mg/kg); 225.895 and 274.993 and 402.246 and 281.673 and 462.031 and 223.557 and 485.745 and 496.099 in assay [1] (LDLr0 mice (second group), 2 Week High Dose (as headed), daily oral T2, individual animal). Further, the Triglycerides in assay [1] (LDLr+/− mice, 1 Week High Dose, T2 2.5 mg/kg daily oral, individual animal, 2.5 mg/kg) was 40.683 and 35.511 and 62.848 and 68.389 and 37.359 and 68.02; in assay [1] (LDLr+/− mice, 1 Week Low Dose, T2 0.25 mg/kg daily oral, individual animal, 0.25 mg/kg), 12.927 and 34.138 and 40.464 and 29.673 and 31.161 and 40.092. In assay [1] (low and high dose T2, all genotypes), the “effect on serum triglyceride levels” value was “did not affect”. Moreover, the “effect on thyroid receptor homodimer formation” value in assay [2] is listed as “no effect”.

Source of the values: patent publication US20120065267A1, “COMPOSITIONS INCLUDING 3,5-L-T2 AND METHODS OF USE THEREOF” (priority 2010, published 2012).
